Assay: clinical
Conditions: both, human, in vivo; for Vd: Vss
Protocol: This was a Phase 1, multicenter, prospective, open-label study of 750 mg ceftolozane/tazobactam (as CXA-201) administered IV in male and female adult subjects with severe renal impairment (estimated CLCR<30 mL/min) and subjects with end-stage renal disease (ESRD) on hemodialysis (HD). The primary objective of the study was to determine the PK profile of ceftolozane/tazobactam in subjects with severe renal impairment and subjects with ESRD on HD and to determine the effect of HD on the clearance of ceftolozane/tazobactam.
Subjects with severe renal impairment received a single IV 1-hour infusion of 750 mg ceftolozane/tazobactam on Day 1. […] Subjects in this cohort received an IV dose of 750 mg ceftolozane/tazobactam as a 1 hour infusion immediately after their first HD session on Day 1 (post dialysis, approximately 72 hours prior to the next HD session) and a second dose of ceftolozane/tazobactam approximately 2 hours before their second HD session on Day 4 of the study. Infusion of ceftolozane/tazobactam was completed approximately 1 hour before the start of HD.
Subjects in both cohorts had urine (if not anuric) and plasma samples collected for determination of levels of ceftolozane, tazobactam and the M1 metabolite of tazobactam; subjects in the ESRD on HD cohort also had dialysate fluid samples collected for PK assessment. Plasma, urine, and dialysate levels of ceftolozane, tazobactam, and its metabolite M1 collected over a prespecified interval were determined by LC/MS/MS assay.
All subjects underwent hemodialysis for 3 to 4 hours using a high-flux membrane (either 1.4, 1.8, or 1.9 m^2) on Days 1, 4, and 6 as scheduled. Average blood flow rate was 264 to 600 mL/min and average dialysis flow rate was either 600 or 800 mL/min for all subjects with ESRD.
All cohorts received ceftolozane/tazobactam as an intravenous infusion over 1 h. The normal, mild, and moderate renal impairment cohorts received a single dose of ceftolozane/tazobactam 1,000 mg/500 mg; the severe renal impairment cohort received a single dose of ceftolozane/tazobactam 500 mg/250 mg; the ESRD cohort received a dose of ceftolozane/tazobactam 500 mg/250 mg initiated at the end of HD on day 1 and another dose initiated 2 h before HD on day 4. Subjects with ESRD underwent HD for 3 to 4 h using a high-flux membrane as scheduled; average dialysis flow rate was 600 to 800 ml/min. Revaclear hemodialyzers (Gambro, Stockholm, Sweden) were used in 5 subjects (ultrafiltration coefficient 50 to 60 ml/h/mmHg, high flux membrane of 1.4 to 1.8 m^2) and a CT 190G hemodialyzers (Baxter Healthcare, McGaw Park, Ill.) was used in 1 subject (ultrafiltration coefficient 36 ml/h/mmHg, high flux membrane of 1.9 m^2). The average blood flow rate was 400 to 600 ml/min with the exception of one subject with rates between 264 and 400 ml/min.
Plasma concentrations of ceftolozane and tazobactam were measured prior to, during, and following administration of ceftolozane/tazobactam. Blood samples were collected 30 min prior to administration, at the end of administration and at 5, 15, and 30 min and 1, 2, 3, 5, 7, 9, 11, 15, 25, and 35 h after completion of ceftolozane/tazobactam administration in the normal, mild, and moderate renal impairment cohorts. Severe renal impairment and ESRD cohorts off HD had samples taken 30 min prior to administration and at 0.5, 1, 1.5, 2, 3, 6, 9, 12, 24, 36, and 48 h after the start of administration. On the day of and following HD, the subjects with ESRD had samples taken 30 min prior to administration and at 0.5, 1, 1.5, 2, 3, 4, 5, 6, 9, 12, 24, 36, and 44 h after the start of the administration. The entire dialysate was collected at each of the following intervals: 0 to 1, 1 to 2, 2 to 3, and 3 h to the end of dialysis. Urine for PK analysis was obtained in the normal, mild, and moderate cohorts at 0 to 2, 2 to 4, 4 to 8, 8 to 12, 12 to 24, and 24 to 36 h after the start of ceftolozane/tazobactam administration.

Compound | AUC [µg·h/mL] | AUC48h Ratio (Day 3:1), median (range) | CLss | Change in Concentration | Clast | Clast lower than Cmax | Concentration after HD | Concentration before HD | Half-Life, median (range) | Percent Removed | Percent Removed, median (range) | average extraction ratio during HD [%] | median Cmax higher vs normal renal function, dose normalized [fold] | rebound peak plasma concentration after HD, of the original Cmax | reduction in overall exposure | AUC(0-inf) (AUC0-∞) [µg·h/mL] | AUC(0-inf) (AUC0-∞, median (range)) [µg·h/mL] | clearance (CL, median (range)) [mL/min] | Cmax [µg/mL] | Cmax (median (range)) [µg/mL] | further results
Cn1c(N)c(NC(=O)NCCN)c[n+]1CC1=C(C(=O)O)N2C(=O)[C@@H](NC(=O)/C(=N\OC(C)(C)C(=O)O)c3nsc(N)n3)[C@H]2SC1 [Ceftolozane, (6R,7R)-3-[(5-amino-4-{[(2-aminoethyl)carbamoyl]amino}-1-methyl-1H-pyrazol-2-ium-2-yl)methyl]-7-({(2Z)-2-(5-amino-1,2,4-thiadiazol-3-yl)-2-[(1-carboxy-1-methylethoxy)imino]acetyl}amino)-8-oxo-5-thia-1-azabicyclo[4.2.0]oct-2-ene-2-carboxylate] | 87 | 0.34 (0.26-0.48) | 5.01 (4.11-10.7) L/hr | 32.3 (10.2-44.8) | 2.88 (1.23-4.48) μg/mL | approximately 14 fold | 2.9 (1.2-4.5) μg/mL | 34.4 (13.2-49.3) μg/mL | 43.2 h | 91.5 (72.3-96.3) % | 66 (52-74) | 46 | 1.2 | approximately 17% | approximately 66% | 99.8 | 1630 | 5 | 41.1 | 44.2 | Cmax, mean (CV %): 40.9 (35) μg/mL; tmax, median (minimum, maximum): 1.0 (1.0, 1.0) h; AUC(0-t) (AUC0-t): 97.1 µg·h/mL; AUC(0-inf) (AUC∞, mean (CV %)): 1680 µg·h/mL; clearance (CL, mean (CV %)): 6.67 mL/min; half-life (Half-Life): 1.13 h; half-life (Half-Life, median (range)): 40.5 h; Vd: 7.26 L; Vd (mean (CV %)): 19.2 L; Vd (median (range)): 17.9 L; clearance (median dialysis clearance (CLD)): 95.8 mL/min; half-life (t1/2 during the HD period (median)): 1.13 h
C[C@]1(Cn2ccnn2)[C@H](C(=O)O)N2C(=O)C[C@H]2S1(=O)=O [Tazobactam, tazobactam] | 26.4 | 0.44 (0.26-0.53) | 8.53 (5.53-15.9) L/hr | 10.5 (3.6-17.6) | 0.46 (0.13-1.14) μg/mL | ~32 fold | 0.5 (0.1-1.1) μg/mL | 10.8 (3.9-18.7) μg/mL | 5.0 (1.9-8.5) hr | 95.3 (83.8-98.6) % | 56 (47-74) | 53 | 2.4 | ~6% | ~56% | 29.4 | 109 | 40 | 14.9 | 20.2 | Tmax: 1.00 (1.00-1.00) hr; Tmax, median (range): 1.0 (1.0-1.0) hr; median dialysis clearance (CLD): 4.39 (1.36-6.29) L/hr; removed by dialysis: ~56%; t1/2 during the HD period (median): 0.91 h; half-life (Half-Life, median (range)): 4.21 h; Vd: 10.4 L; Vd (median (range)): 15.2 L

From US10933053B2, “Treating infections with ceftolozane/tazobactam in subjects having impaired renal function” (MERCK SHARP & DOHME CORP., priority 2013, dated 2021)
